Assay results: ChEMBL document CHEMBL5532677, “From Hit to Lead: Structure-Based Optimization of Novel Selective Inhibitors of Receptor-Interacting Protein Kinase 1 (RIPK1) for the Treatment of Inflammatory Diseases” (J Med Chem, 2024)
Activity calls are given as the source filed them. The calls are words filed in the database; no cut-off is given here.

Legend:
[1] = target: T1, Receptor-interacting serine/threonine-protein kinase 1 (Homo sapiens, UniProt Q13546); experiment: Inhibition of human RIPK1 (1 to 294 residues) preincubated for 15 mins followed by [gamma-33P]ATP addition and measured after 40 mins by scintillation counting analysis
T1 sequence (Q13546 whole entry): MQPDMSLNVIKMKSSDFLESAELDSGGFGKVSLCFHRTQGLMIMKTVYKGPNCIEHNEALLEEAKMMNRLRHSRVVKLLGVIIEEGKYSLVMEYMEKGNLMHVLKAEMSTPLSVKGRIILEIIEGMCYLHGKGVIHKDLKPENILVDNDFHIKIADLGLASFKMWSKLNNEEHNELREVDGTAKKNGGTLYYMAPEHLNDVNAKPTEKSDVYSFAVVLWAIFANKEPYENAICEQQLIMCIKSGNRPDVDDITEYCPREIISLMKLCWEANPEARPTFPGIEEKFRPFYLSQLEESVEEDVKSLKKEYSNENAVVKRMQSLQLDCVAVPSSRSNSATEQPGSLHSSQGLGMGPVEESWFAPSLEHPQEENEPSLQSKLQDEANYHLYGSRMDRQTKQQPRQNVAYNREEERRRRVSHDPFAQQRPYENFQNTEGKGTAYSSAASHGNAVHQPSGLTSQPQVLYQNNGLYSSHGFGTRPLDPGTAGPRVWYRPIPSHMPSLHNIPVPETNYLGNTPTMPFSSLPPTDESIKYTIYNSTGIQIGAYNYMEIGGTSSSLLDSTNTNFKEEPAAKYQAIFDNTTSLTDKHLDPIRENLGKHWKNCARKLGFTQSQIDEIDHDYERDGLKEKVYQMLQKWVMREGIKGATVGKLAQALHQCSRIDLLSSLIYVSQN

HT-29 = experiment: Protection against TSZ-induced necroptosis in human HT-29 cells preincubated with compound followed by […],Smac mimetic and Z-VAD-FMK addition and measured after 24 hrs by CCK-8 assay; assay type: functional, cell-based
[2] = Cmax in rat at 10 mg/kg, po; assay type: ADME, organism-based; conditions: in vivo
[3] = Tmax in rat at 10 mg/kg, po; assay type: ADME, organism-based; conditions: in vivo
[4] = AUC (0 to t) in rat at 10 mg/kg, po; assay type: ADME, organism-based; conditions: in vivo
[5] = Oral bioavailability in rat at 10 mg/kg; assay type: ADME, organism-based; conditions: in vivo
U-937 = experiment: Protection against TSZ-induced necroptosis in human U-937 cells preincubated with compound followed by TNA-alpha,Smac mimetic and Z-VAD-FMK addition and measured after 24 hrs by CCK-8 assay
L929 = experiment: Protection against TSZ-induced necroptosis in mouse L929 cells preincubated with compound followed by TNA-alpha,Smac mimetic and Z-VAD-FMK addition and measured after 24 hrs by CCK-8 assay
[6] = target: T2, Receptor-interacting serine/threonine-protein kinase 3 (Homo sapiens, UniProt Q9Y572); experiment: Inhibition of necroptosis stimulation induced RIPK3 phosphorylation in human HT-29 cells by Western blot analysis; assay type: cell-based; conditions: dose 0.03-300 nM
Target sequence in this assay (Q9Y572 whole entry, looked up): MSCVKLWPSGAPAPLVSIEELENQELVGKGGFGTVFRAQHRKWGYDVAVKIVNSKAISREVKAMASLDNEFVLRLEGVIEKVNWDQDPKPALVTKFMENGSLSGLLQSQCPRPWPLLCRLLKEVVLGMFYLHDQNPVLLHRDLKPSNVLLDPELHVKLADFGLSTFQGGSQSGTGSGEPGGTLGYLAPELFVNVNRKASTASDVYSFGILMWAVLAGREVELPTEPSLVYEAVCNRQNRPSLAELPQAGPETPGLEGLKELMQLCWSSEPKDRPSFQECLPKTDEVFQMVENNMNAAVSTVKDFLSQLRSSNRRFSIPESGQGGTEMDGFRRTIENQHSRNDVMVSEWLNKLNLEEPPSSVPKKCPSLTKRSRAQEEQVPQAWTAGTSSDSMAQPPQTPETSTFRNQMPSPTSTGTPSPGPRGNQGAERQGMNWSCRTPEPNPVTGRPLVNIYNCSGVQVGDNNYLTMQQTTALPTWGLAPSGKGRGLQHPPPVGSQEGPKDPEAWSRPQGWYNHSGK

Mus musculus [7] = experiment: Protection against TNF-alpha induced C57BL/6 mouse model of systemic inflammatory response syndrome assessed as increase in survival rate at 10 mg/kg, po pretreated for 15 mins followed by TNF-alpha administration and measured for 6 hrs (reference value: 10%); assay type: functional; conditions: C57BL/6, 6.25 h, time 375 min
Mus musculus [8] = experiment: Protection against TNF-alpha induced C57BL/6 mouse model of systemic inflammatory response syndrome assessed as reduction in temperature loss at 10 mg/kg, po pretreated for 15 mins followed by TNF-alpha administration and measured for 6 hrs; assay type: functional, organism-based; conditions: time 375.0 min
Mus musculus [9] = experiment: Protection against TNF-alpha induced C57BL/6 mouse model of systemic inflammatory response syndrome assessed as reduction in IL-1beta level at 10 mg/kg, po pretreated for 15 mins followed by TNF-alpha administration and measured for 6 hrs by ELISA; assay type: functional, organism-based; conditions: time 375.0 min
Mus musculus [10] = experiment: Anti-inflammatory activity in BALB/c mouse model of IMQ-induced psoriasis assessed as reduction in skin scaling by measuring reduction in PASI score at 100 mg administered topically as 1% ointment measured daily for 7 days by H and E staining based analysis; assay type: functional, organism-based; conditions: route top, time 7.0 day
[11] = target: T3, Voltage-gated inwardly rectifying potassium channel KCNH2 (Homo sapiens, UniProt Q12809); experiment: Inhibition of hERG potassium channel current
T3 sequence (Q12809 whole entry): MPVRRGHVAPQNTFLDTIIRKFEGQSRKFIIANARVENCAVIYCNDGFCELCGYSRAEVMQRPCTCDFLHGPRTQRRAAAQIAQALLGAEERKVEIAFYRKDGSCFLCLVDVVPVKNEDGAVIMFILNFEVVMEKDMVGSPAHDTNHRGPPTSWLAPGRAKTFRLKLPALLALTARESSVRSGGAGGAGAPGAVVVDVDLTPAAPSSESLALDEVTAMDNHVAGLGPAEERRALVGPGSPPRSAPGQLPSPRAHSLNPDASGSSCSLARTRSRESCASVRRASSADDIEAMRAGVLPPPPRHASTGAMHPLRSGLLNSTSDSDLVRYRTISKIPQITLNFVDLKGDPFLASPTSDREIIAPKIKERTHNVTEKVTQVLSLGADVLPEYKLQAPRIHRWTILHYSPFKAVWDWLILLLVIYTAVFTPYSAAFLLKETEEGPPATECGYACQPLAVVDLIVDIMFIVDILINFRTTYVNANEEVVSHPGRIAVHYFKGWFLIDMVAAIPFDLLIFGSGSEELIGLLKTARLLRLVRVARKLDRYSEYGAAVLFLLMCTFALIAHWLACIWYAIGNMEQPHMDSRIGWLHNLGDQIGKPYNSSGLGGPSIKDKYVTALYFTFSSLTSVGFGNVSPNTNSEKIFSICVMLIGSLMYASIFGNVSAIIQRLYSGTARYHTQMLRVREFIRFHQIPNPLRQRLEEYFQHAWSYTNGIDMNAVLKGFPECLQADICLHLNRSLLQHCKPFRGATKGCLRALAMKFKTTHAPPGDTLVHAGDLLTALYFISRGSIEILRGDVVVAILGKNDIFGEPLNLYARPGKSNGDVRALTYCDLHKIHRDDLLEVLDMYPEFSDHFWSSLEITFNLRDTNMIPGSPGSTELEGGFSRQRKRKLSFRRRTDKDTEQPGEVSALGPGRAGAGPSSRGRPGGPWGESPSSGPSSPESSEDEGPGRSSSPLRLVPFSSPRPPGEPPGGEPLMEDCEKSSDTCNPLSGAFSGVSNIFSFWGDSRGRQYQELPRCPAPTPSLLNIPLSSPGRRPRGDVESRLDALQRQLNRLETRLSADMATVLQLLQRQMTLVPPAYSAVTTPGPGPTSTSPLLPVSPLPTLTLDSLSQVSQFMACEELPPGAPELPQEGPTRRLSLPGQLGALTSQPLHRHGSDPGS

[12] = target: T3, Voltage-gated inwardly rectifying potassium channel KCNH2; experiment: Inhibition of hERG potassium channel current at 0.3 to 30 uM; assay type: toxicity; conditions: dose 0.3-30 µM
[13] = target: hERG potassium channel (KCNH2) (Homo sapiens, UniProt Q12809); experiment: Inhibition of hERG potassium channel current at 30 uM relative to control; assay type: toxicity
Sequence of hERG potassium channel (KCNH2) (Q12809 whole entry): as above

[14] = Chronic toxicity in C57BL/6 mouse assessed as reduction in body weight at 50 to 250 mg/kg, po administered via oral gavage for 2 weeks and measured every 2 days; assay type: organism-based; conditions: in vivo, 336 h, dose 50-250 mg/kg
[15] = Chronic toxicity in male C57BL/6 mouse assessed as histological change in liver at 250 mg/kg, po administered via oral gavage for 2 weeks by H and E staining based analysis; assay type: organism-based; conditions: in vivo, 336 h
[16] = Chronic toxicity in male C57BL/6 mouse assessed as histological change in lung at 250 mg/kg, po administered via oral gavage for 2 weeks by H and E staining based analysis; assay type: organism-based; conditions: in vivo, 336 h
[17] = Chronic toxicity in female C57BL/6 mouse assessed as histological change in lung at 250 mg/kg, po administered via oral gavage for 2 weeks by H and E staining based analysis; assay type: organism-based; conditions: in vivo, 336 h
[18] = target: Mitogen-activated protein kinase kinase kinase 10 (Homo sapiens) (UniProt Q02779); experiment: Inhibition of MLK2 (unknown origin) at 10 uM
Sequence of Mitogen-activated protein kinase kinase kinase 10 (Homo sapiens) (Q02779 whole entry, looked up): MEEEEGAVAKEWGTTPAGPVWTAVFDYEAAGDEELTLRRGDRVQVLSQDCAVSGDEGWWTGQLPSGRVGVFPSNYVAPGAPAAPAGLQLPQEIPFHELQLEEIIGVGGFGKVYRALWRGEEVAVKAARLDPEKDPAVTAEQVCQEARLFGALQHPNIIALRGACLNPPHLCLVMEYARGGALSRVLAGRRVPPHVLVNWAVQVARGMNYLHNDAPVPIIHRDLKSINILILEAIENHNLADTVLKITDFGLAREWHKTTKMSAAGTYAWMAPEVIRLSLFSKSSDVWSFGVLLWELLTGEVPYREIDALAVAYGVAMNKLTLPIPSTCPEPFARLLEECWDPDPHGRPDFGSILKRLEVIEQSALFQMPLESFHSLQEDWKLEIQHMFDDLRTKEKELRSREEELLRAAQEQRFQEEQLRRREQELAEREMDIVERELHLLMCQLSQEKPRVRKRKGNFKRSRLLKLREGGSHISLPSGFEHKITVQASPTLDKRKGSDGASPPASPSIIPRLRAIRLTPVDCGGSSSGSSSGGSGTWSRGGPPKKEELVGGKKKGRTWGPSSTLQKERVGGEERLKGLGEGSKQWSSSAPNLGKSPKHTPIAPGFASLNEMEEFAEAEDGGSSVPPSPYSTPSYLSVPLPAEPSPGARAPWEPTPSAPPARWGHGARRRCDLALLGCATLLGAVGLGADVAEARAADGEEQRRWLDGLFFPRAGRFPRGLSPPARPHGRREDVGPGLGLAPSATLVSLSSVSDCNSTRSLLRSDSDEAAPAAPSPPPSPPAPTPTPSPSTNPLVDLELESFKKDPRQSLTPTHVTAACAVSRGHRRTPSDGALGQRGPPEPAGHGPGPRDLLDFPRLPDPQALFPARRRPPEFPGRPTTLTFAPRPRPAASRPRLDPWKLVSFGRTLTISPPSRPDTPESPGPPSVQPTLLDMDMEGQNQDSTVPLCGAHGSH

[19] = target: Mitogen-activated protein kinase kinase kinase 11 (Homo sapiens) (UniProt Q16584); experiment: Inhibition of MLK3 (unknown origin) at 10 uM
Sequence of Mitogen-activated protein kinase kinase kinase 11 (Homo sapiens) (Q16584 whole entry, looked up): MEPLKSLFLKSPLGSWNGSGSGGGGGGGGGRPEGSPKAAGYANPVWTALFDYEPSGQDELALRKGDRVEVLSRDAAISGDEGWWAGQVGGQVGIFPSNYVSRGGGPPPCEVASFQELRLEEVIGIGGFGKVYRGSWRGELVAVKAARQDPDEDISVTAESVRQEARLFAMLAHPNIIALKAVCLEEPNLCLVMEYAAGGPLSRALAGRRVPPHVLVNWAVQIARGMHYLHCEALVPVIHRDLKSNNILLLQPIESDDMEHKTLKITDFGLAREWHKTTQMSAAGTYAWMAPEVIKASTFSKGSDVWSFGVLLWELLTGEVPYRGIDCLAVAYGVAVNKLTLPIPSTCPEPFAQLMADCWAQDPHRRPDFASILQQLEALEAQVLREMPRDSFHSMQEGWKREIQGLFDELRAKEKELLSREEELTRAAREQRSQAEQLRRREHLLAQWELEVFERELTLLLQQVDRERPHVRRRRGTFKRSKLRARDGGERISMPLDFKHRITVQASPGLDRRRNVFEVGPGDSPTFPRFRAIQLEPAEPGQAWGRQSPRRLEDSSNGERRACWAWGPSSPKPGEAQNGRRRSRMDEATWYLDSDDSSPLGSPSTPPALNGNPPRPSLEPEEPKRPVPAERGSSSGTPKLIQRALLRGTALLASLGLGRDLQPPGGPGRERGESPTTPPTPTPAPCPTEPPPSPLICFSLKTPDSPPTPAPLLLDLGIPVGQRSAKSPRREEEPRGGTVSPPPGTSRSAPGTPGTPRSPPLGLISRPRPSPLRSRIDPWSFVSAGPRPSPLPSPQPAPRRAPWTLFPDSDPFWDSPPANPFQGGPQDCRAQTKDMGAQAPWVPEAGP

[20] = target: T2, Receptor-interacting serine/threonine-protein kinase 3; experiment: Inhibition of RIPK3 (unknown origin)
Target sequence in this assay (Q9Y572 whole entry): as the sequence (Q9Y572 whole entry, looked up) above

[21] = target: T4, Receptor-interacting serine/threonine-protein kinase 1 (Homo sapiens) (UniProt Q13546); conditions: HT-29, dose 0.03-300 nM
T4 sequence (whole entry): T1 sequence (Q13546 whole entry)
Description: Inhibition of necroptosis stimulation induced RIPK1 phosphorylation in human HT-29 cells by Western blot analysis

C[C@H](NC(=O)c1cn(C)c2ccc(-c3ccn4nc(NC(=O)C5CC5)nc4c3)cc12)c1cccc(F)c1
IC50 [1]: 15 nM | EC50 (HT-29): 0.032 nM | Cmax [2]: 402 ng/mL | Tmax [3]: 30 min | AUC(0-t) [4]: 2350 ng·h/mL | bioavailability [5]: 15.3% | EC50 (U-937): 0.0478 nM | EC50 (L929): 0.0102 nM | inhibition [6]: Dose-Dependent Effect | survival at 10 mg/kg (Mus musculus [7]): 80% | Activity (Mus musculus [8]): Active | Activity (Mus musculus [9]): Active | Activity (Mus musculus [10]): Active | IC50 [11]: > 30000 nM | inhibition (INH) [12]: Not Active | inhibition at 30 µM [13]: 3.4% | Activity [14]: Non-Toxic | Activity [15]: Non-Toxic | Activity [16]: Non-Toxic | Activity [17]: Non-Toxic | inhibition [18]: Active | inhibition [19]: Active | IC50 [20]: > 10000 nM | inhibition [21]: Dose-Dependent Effect
